Target: T1, RORgT (Homo sapiens, UniProt P51449)
T1 construct: Gal4 (fusion partner); expressed in transfected cells; host or cells: engineered Jurkat cells (Jurkat pEx/Gal/hRORγ CLBD/HYG pG5luc/blast)
T1 sequence (P51449 267-516): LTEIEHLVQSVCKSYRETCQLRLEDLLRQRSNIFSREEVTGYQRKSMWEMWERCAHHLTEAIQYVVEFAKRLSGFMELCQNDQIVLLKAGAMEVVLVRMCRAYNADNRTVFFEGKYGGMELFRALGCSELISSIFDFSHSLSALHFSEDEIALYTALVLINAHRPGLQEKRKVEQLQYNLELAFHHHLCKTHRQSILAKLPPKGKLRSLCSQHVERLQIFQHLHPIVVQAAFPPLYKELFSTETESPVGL
Assay: RORgT Gal4 Luciferase Reporter Gene Assay
Assay type: cell-based
Details: RORg_GAL4 EC50 (nM), engineered Jurkat cells overexpressing RORgT (LBD or full length) with Gal4 Luc reporter; 18 hours at 37° C.; 40 μM to 0.67 nM
Protocol: The compound and the cells were incubated for 18 hours at 37° C. in a cell culture incubator. Cells were then lysed with 15 uL of Steady-Glo Luciferase Assay reagent (Promega EZ550), followed by centrifuging the assay plates at 1500 RPM for 1 minute. Subsequently, the plates were read on the Envision (PerkinElmer). The inhibition of constitutive activity of RORgT achieved by graded concentrations of compound was calculated as a percentage of the luminescence signal window reduction over a control compound.

`CC(C)c1cc(F)cc(Oc2c(Cl)ccc(C(=O)N3CCN(S(C)(=O)=O)CC3)c2Cl)c1` [Example 263] gave an EC50 of 105 nM.

Same assay, conditions: engineered Jurkat cells overexpressing RORgT (LBD or full length) with Gal4 Luc reporter; 18 hours at 37° C.; 40 μM to 0.67 nM; read-out: RORg_GAL4 EC50

Compared with `COc1ccc(Oc2c(Cl)cc(NC(=O)CCC(N)=O)cc2Cl)cc1C(C)C` [Example 281], `COCCC(=O)Nc1cc(Cl)c(Oc2ccc(OC)c(C(C)C)c2)c(Cl)c1` [Example 300] is 1.6-fold higher in EC50: 375 nM for the first, 591 nM for the second. The first is the more potent here.

Compared with `COc1ccc(Oc2c(Cl)ccc(C(=O)Nc3ccccc3CC#N)c2Cl)cc1C(C)C` [Example 215], `COc1ccc(Oc2c(Cl)ccc(C(=O)NCC#N)c2Cl)cc1C(C)C` [Example 201] is 14-fold higher in EC50: 37 nM for the first, 511 nM for the second.

First: COc1ccc(Oc2c(Cl)cc(NC(=O)CCn3cc(S(C)(=O)=O)cn3)cc2Cl)cc1C(C)C [Example 9, N-(3,5-dichloro-4-(3-isopropyl-4-methoxyphenoxy)phenyl)-3-(4-(methylsulfonyl)-1H-pyrazol-1-yl)propanamide]
Second: COc1ccc(Oc2c(Cl)cc(NC(=O)Cc3cnc(S(C)(=O)=O)cn3)cc2Cl)cc1C(C)C [Example 243]
The EC50 of the first is 16-fold lower: 81 nM for the first, 1280 nM for the second.

Compared with `COc1ccc(Oc2c(Cl)ccc(CNC(=O)COC3CCN(S(C)(=O)=O)CC3)c2Cl)cc1C(C)C` [Example 188], `COc1ccc(Oc2c(Cl)ccc(CNC(=O)CC3CCN(S(C)(=O)=O)CC3)c2Cl)cc1C(C)C` [Example 222] is 1.7-fold lower in EC50: 383 nM for the first, 225 nM for the second. The second is the more potent here.

Going from `CC(C)c1cc(Oc2c(Cl)cc(NC(=O)CC3CCN(S(C)(=O)=O)CC3)cc2Cl)ccc1OC(F)(F)F` [Example 260] to `COc1ccc(Oc2c(Cl)cc(NC(=O)CC3CCN(S(C)(=O)=O)CC3)cc2Cl)cc1C(C)(C)C` [Example 255], the EC50 falls from 102 nM to 19 nM (5.4-fold). The second is the more potent here.

First: COc1ccc(Oc2c(Cl)cc(NC(=O)NC(C)C)cc2Cl)cc1C(C)C [Example 34, 1-(3,5-dichloro-4-(3-isopropyl-4-methoxyphenoxy)phenyl)-3-isopropylurea]
Second: COc1ccc(Oc2c(Cl)cc(NS(=O)(=O)C(C)C)cc2Cl)cc1C(C)C [Example 305]
The EC50 of the first is 2.5-fold higher: 1060 nM for the first, 421 nM for the second.

Going from `COc1ccc(Oc2c(Cl)cc(N3CC(CNS(C)(=O)=O)OC3=O)cc2Cl)cc1C(C)C` (stereo not shown) [Example 254] to `COc1ccc(Oc2c(Cl)cc(N3CC(CNS(N)(=O)=O)OC3=O)cc2Cl)cc1C(C)C` (stereo not shown) [Example 12, N-[(3-{3,5-dichloro-4-[4-methoxy-3-(propan-2-yl)phenoxy]phenyl}-2-oxo-1,3-oxazolidin-5-yl)methyl]aminosulfonamide], the EC50 rises from 655 nM to 1100 nM (1.7-fold).

`CCc1cc(Oc2c(Cl)cc(NC(=O)Cc3cccnc3)cc2Cl)ccc1OC` [Example 310] and `COc1ccc(Oc2c(Cl)cc(NC(=O)Cc3cccnc3)cc2Cl)cc1C(C)(C)C` [Example 13, N-(4-(3-(tert-butyl)-4-methoxyphenoxy)-3,5-dichlorophenyl)-2-(pyridin-3-yl)acetamide] are within 1.5-fold of each other in EC50: 293 nM for the first, 268 nM for the second.

`COc1ccc(Oc2c(Cl)ccc(NC(=O)Cc3ccc(S(N)(=O)=O)cc3)c2Cl)cc1C(C)C` [Example 61] and `COc1ccc(Oc2c(Cl)ccc(CNC(=O)Cc3ccc(S(C)(=O)=O)cc3)c2Cl)cc1C(C)C` [Example 54] are within 1.5-fold of each other in EC50: 46 nM for the first, 34 nM for the second.

First: COc1ncc(Oc2c(Cl)ccc(CNC(=O)C3CCN(S(C)(=O)=O)CC3)c2Cl)cc1C(C)C [Example 144]
Second: COc1ccc(Oc2c(Cl)ccc(CNS(=O)(=O)C3CCN(S(C)(=O)=O)CC3)c2Cl)cc1C(C)C [Example 57]
The EC50 of the first is 2.4-fold lower: 6.6 nM for the first, 16 nM for the second.

Compared with `COc1ccc(Oc2c(Cl)cc(NC(=N)Cc3cccnc3)cc2Cl)cc1C(C)C` [Example 36, N-(3,5-dichloro-4-(3-isopropyl-4-methoxyphenoxy)phenyl)-2-(pyridin-3-yl)acetimidamide], `COc1ccc(Oc2c(Cl)cc(NC(=O)Cc3cccnc3)cc2Cl)cc1C(C)(C)O` [Example 335] is 1.6-fold higher in EC50: 455 nM for the first, 722 nM for the second.

`COc1ccc(Oc2c(Cl)ccc(C(=O)NCCCn3ccnc3)c2Cl)cc1C(C)C` [Example 80] and `COc1ccc(Oc2c(Cl)ccc(C(=O)NCCc3ncn[nH]3)c2Cl)cc1C(C)C` [Example 218] are within 1.5-fold of each other in EC50: 287 nM for the first, 328 nM for the second.

First: COc1ccc(Oc2c(Cl)cc(NC(=O)CC3CCCN(S(N)(=O)=O)C3)cc2Cl)cc1C(C)C (stereo not shown) [Example 314]
Second: COc1ccc(Oc2c(Cl)cc(NC(=O)CC3CCCN(S(=O)(=O)C4CC4)C3)cc2Cl)cc1C(C)C (stereo not shown) [Example 317]
The EC50 of the first is 8.9-fold higher: 844 nM for the first, 95 nM for the second.

Compared with `COc1ccc(Oc2c(F)cc(NC(=O)Cc3cccnc3)cc2F)cc1CC(C)C` [Example 312], `COc1ccc(Oc2c(F)cc(NC(=O)Cc3cccnc3)cc2F)cc1C(C)C` [Example 40, N-(3,5-difluoro-4-(3-isopropyl-4-methoxyphenoxy)phenyl)-2-(pyridin-3-yl)acetamide] is 1.7-fold higher in EC50: 1440 nM for the first, 2450 nM for the second. The first is the more potent here.

Going from `CC(C)c1cc(F)cc(Oc2c(Cl)ccc(C(=O)NCC3CCN(S(C)(=O)=O)CC3)c2Cl)c1` [Example 261] to `CC1(c2cc(F)cc(Oc3c(Cl)ccc(C(=O)NCC4CCN(S(C)(=O)=O)CC4)c3Cl)c2)CC1` [Example 52, 2,4-dichloro-3-(3-fluoro-5-(1-methylcyclopropyl)phenoxy)-N-((1-(methylsulfonyl)piperidin-4-yl)methyl)benzamide], the EC50 rises from 14 nM to 28 nM (2-fold). The first is the more potent here.

Compared with `CCS(=O)(=O)N[C@H]1CCN(CC(=O)Nc2cc(Cl)c(Oc3ccc(OC)c(C(C)C)c3)c(Cl)c2)C1` [Example 164], `CCS(=O)(=O)N[C@@H]1CCN(CC(=O)Nc2cc(Cl)c(Oc3ccc(OC)c(C(C)C)c3)c(Cl)c2)C1` [Example 159] is 4.7-fold higher in EC50: 80 nM for the first, 377 nM for the second.

Going from `COc1ccc(Oc2c(Cl)ccc(CN(C)C(=O)c3ccc(S(C)(=O)=O)cc3)c2Cl)cc1C(C)C` [Example 22, N-(2,4-dichloro-3-(3-isopropyl-4-methoxyphenoxy)benzyl)-N-methyl-4-(methylsulfonyl)benzamide] to `COc1ccc(Oc2c(Cl)cc(NC(=O)Cc3ccc(S(C)(=O)=O)cc3)cc2Cl)cc1C(C)C` [Example 38, N-(3,5-dichloro-4-(3-isopropyl-4-methoxyphenoxy)phenyl)-2-(4-(methylsulfonyl)phenyl)acetamide], the EC50 falls from 95 nM to 30 nM (3.2-fold). The second is the more potent here.

`COc1ccc(Oc2c(Cl)ccc(C(=O)NCCN3CCCC3=O)c2Cl)cc1C(C)C` [Example 83] and `COC(=O)CNC(=O)c1ccc(Cl)c(Oc2ccc(OC)c(C(C)C)c2)c1Cl` [Example 77] are within 1.5-fold of each other in EC50: 1170 nM for the first, 953 nM for the second.

Going from `CC(C)c1cc(Oc2c(Cl)ccc(C(=O)N3CCC4(CC3)CN(S(C)(=O)=O)C4)c2Cl)ccc1F` [Example 132] to `COc1ccc(Oc2c(Cl)ccc(C(=O)N3CCC4(CC3)CN(C=O)C4)c2Cl)cc1C(C)C` [Example 341], the EC50 rises from 6.3 nM to 75 nM (12-fold). The first is the more potent here.

Going from `C=C(c1cc(Oc2c(Cl)cc(NC(=O)CC3CCN(S(C)(=O)=O)CC3)cc2Cl)cnc1OC)C(F)(F)F` [Example 133] to `C=C(C)c1cc(Oc2c(Cl)cc(NC(=O)CC3CCN(S(C)(=O)=O)CC3)cc2Cl)cnc1OC` [Example 73], the EC50 rises from 4.6 nM to 18 nM (3.9-fold).

First: COc1ccc(Oc2c(Cl)cc(NC(=O)Cc3cccnc3S(C)(=O)=O)cc2Cl)cc1C(C)C [Example 240]
Second: COc1ccc(Oc2c(Cl)cc(NC(=O)Cc3ccnc(S(C)(=O)=O)c3)cc2Cl)cc1C(C)C [Example 241]
The EC50 of the first is 1.5-fold higher: 99 nM for the first, 64 nM for the second.

Going from `COc1ccc(Oc2c(Cl)cc(NC(=O)Cc3cn[nH]c3)cc2Cl)cc1C(C)C` [Example 7] to `COc1ccc(Oc2c(Cl)cc(NC(=O)c3c[nH]c4ncncc34)cc2Cl)cc1C(C)C` [Example 347], the EC50 rises from 173 nM to 1820 nM (11-fold).

First: COc1ccc(Oc2c(Cl)cc(NC(=O)CN3CC4(C3)CN(S(=O)(=O)C3CC3)C4)cc2Cl)cc1C(C)C [Example 229]
Second: COc1ncc(Oc2c(Cl)cc(NC(=O)CN3CCC(S(C)(=O)=O)CC3)cc2Cl)cc1C(C)C [Example 268]
The EC50 of the first is 22-fold higher: 891 nM for the first, 40 nM for the second.

Going from `C=C(C)c1cc(Oc2c(Cl)ccc(C(=O)NCC3CCN(S(C)(=O)=O)CC3)c2Cl)cnc1OC` [Example 71] to `COc1ncc(Oc2c(Cl)ccc(C(=O)NCC3CCN(S(C)(=O)=O)CC3)c2Cl)cc1C(C)(C)F` [Example 153], the EC50 rises from 15 nM to 195 nM (13-fold). The first is the more potent here.

First: COc1ccc(Oc2c(Cl)cc(NC(=O)OCC(C)(C)C#N)cc2Cl)cc1C(C)C [Example 233]
Second: COc1ccc(Oc2c(Cl)ccc(C(=O)NCC3CCN(S(N)(=O)=O)CC3)c2Cl)cc1C(C)C [Example 96]
The EC50 of the first is 25-fold higher: 319 nM for the first, 13 nM for the second.

Compared with `COc1ncc(Oc2c(Cl)cc(NC(=O)CC3CCN(S(C)(=O)=O)CC3)cc2Cl)cc1C(C)(C)F` [Example 28, N-(3,5-dichloro-4-((5-(2-fluoropropan-2-yl)-6-methoxypyridin-3-yl)oxy)phenyl)-2-(1-(methylsulfonyl)piperidin-4-yl)acetamide], `COc1ccc(Oc2c(Cl)ccc(C(=O)NCC3CCN(S(=O)(=O)C4CC4)CC3)c2Cl)cc1C(C)C` [Example 92] is 3.5-fold higher in EC50: 6.9 nM for the first, 24 nM for the second.

First: COc1ccc(Oc2c(Cl)ccc(C(=O)NC[C@H]3CC[C@H](C(=O)OC)CC3)c2Cl)cc1C(C)C [Example 69]
Second: COc1ccc(Oc2c(Cl)ccc(C(=O)N3CCC(O)CC3)c2Cl)cc1C(C)C [Example 189]
The EC50 of the first is 12-fold higher: 481 nM for the first, 40 nM for the second. The second is the more potent here.

Going from `CC(c1cc(F)cc(Oc2c(Cl)cc(NC(=O)Cc3ccc(S(C)(=O)=O)cc3)cc2Cl)c1)C(F)(F)F` (stereo not shown) [Example 354] to `COc1ncc(Oc2c(Cl)ccc(C(=O)NCc3cccc(S(C)(=O)=O)c3)c2Cl)cc1C(C)C` [Example 138], the EC50 rises from 3.5 nM to 225 nM (64-fold). The first is the more potent here.

With `COc1ccc(Oc2c(Cl)ccc(C(=O)NCc3ccc(S(N)(=O)=O)nc3)c2Cl)cc1C(C)C` [Example 101] the EC50 was 14 nM.

Source: patent US20220306630A1, “AGONISTS OF ROR GAMMAt” (BRISTOL-MYERS SQUIBB COMPANY, priority 2019, published 2022)
